Measurements as given in PMC7488486 (Acta Pharmaceutica Sinica. B, 2020).

Columns and labels:
dopamine D2 receptors = dopamine D2 receptors (Homo sapiens, UniProt P14416); test: [35S]GTPγS binding assay in transfected cells, dopamine D2 receptor; type: biochemical
adult male Wistar rats [1] = test: Tail-flick test, acute pain model, single administration; type: in vivo; conditions: i.t., 10 nmol/rat, mean ± SEM
adult male Wistar rats [2] = test: Rotarod, evaluation of motor impairment; type: in vivo; conditions: 10 nmol/rat i.t., 30 min after administration, cut-off 300 s, n = 6
adult male Wistar rats [3] = test: Scratching and grooming behaviour; type: in vivo; conditions: 10 nmol/rat i.t.
adult male Wistar rats [4] = system: adult male Wistar rats

dopamine D2 receptors, sequence (P14416 whole entry): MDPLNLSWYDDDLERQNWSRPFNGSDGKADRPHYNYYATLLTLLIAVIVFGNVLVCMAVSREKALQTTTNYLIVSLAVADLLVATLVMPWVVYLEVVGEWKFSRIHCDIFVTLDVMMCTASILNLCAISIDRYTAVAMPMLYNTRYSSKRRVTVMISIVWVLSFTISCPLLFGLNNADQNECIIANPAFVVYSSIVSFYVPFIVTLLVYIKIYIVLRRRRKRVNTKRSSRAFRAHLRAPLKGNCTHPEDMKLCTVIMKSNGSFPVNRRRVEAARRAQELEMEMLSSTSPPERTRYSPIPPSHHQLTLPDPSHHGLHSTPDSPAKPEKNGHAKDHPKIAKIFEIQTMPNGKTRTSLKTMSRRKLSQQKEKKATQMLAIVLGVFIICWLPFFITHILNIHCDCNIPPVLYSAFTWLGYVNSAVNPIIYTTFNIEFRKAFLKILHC

NCCc1ccc(O)c(O)c1 [Dopamine]
Influence of domperidone on the [35S]GTPγS response (dopamine D2 receptors; dopamine receptor antagonist domperidone present, unpublished data): considerably reduced in the presence of domperidone
Emax (dopamine D2 receptors; read-out: Emax, G protein activation at dopamine D2 receptor): 141%

CN1CC[C@]23c4c5ccc(O)c4O[C@H]2[C@@H](O)C=C[C@H]3[C@H]1C5 [Morphine]
MPE (%), tail-flick test (adult male Wistar rats [1]; 15 min post-administration): 84.50 ± 3.84%
MPE (%), tail-flick test (adult male Wistar rats [1]; 30 min post-injection): 86.23 ± 4.76%
Latency to fall, Rotarod (adult male Wistar rats [2]): 222.33 ± 8.44 s
Additional behaviours (wet-dog shakes, teeth chattering) (adult male Wistar rats [3]): wet-dog shakes and teeth chattering
Scratching response (adult male Wistar rats [3]; day 9, first 30 min post-injection): strong scratch reflex in rats that weakened over time
Increase in the acute ED50 values after repeated treatment (adult male Wistar rats [4]; i.t., tail-flick test): 3.2 fold
ED50 value (nmol, i.t.), Day 1 (adult male Wistar rats [4]; rat tail-flick, 30 min post-injection, Day 1, mean (CI 95%)): 2.82 (2.33–3.41) nmol
ED50 value (nmol, i.t.), Day 3 (adult male Wistar rats [4]; rat tail-flick, repeated daily treatment, Day 3, mean (CI 95%)): 9.03 (7.03–11.61) nmol
